Assay results from the supplement of paper PMC11061612.

Tests used:
Assay in all cases: combination Emax (second highest fraction inhibited in the dose matrix, 72 h); higher = more inhibition; extreme values may be limits of the assay
[1] = test system: COR-L88 (Small Cell Lung Carcinoma)
Method in brief: (§1)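 Cell lines in DMEM/F12 or RPMI with 10% FBS were plated in 1536-well plates, held 24 hours at 37°C, 5% CO2, then given two-drug dose matrices for 72 hours (DMSO typically 0.2%). Viability was read by CellTiter-Glo 2.0 luminescence and scaled as inhibition from 0 (vehicle wells) to 1 (blank wells). Combination Emax is the second-highest inhibition in the matrix; Bliss excess is observed combination effect minus expected EA + EB − EA·EB, EA and EB being single-agent effects.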

[2] = test system: C-33-A (Cervical Carcinoma)
Method in brief: as §1

[3] = test system: NAMALWA (Burkitt's Lymphoma)
Method in brief: as §1

[4] = test system: NCI-H3118 (Head and Neck Carcinoma)
Method in brief: as §1

[5] = test system: MDA-MB-415 (Breast Carcinoma)
Method in brief: as §1

[6] = test system: LCLC-103H (Non-Small Cell Lung Carcinoma)
Method in brief: as §1

[7] = test system: MS-1 (Small Cell Lung Carcinoma)
Method in brief: as §1

[8] = test system: HPAF-II (Pancreatic Carcinoma)
Method in brief: as §1

[9] = test system: SKG-IIIa (Cervical Carcinoma)
Method in brief: as §1

[10] = test system: SNU-423 (Hepatocellular Carcinoma)
Method in brief: as §1

KALS-1 (Glioblastoma) = test system: KALS-1 (Glioblastoma)
Method in brief: as §1

[11] = test system: IA-LM (Non-Small Cell Lung Carcinoma)
Method in brief: as §1

GAK (Melanoma) = test system: GAK (Melanoma)
Method in brief: as §1

ES6 (Ewing's Sarcoma) = test system: ES6 (Ewing's Sarcoma)
Method in brief: as §1

IST-MEL1 (Melanoma) = test system: IST-MEL1 (Melanoma)
Method in brief: as §1

[12] = test system: T84 (Colorectal Carcinoma)
Method in brief: as §1

[13] = test system: RCC-JW (Kidney Carcinoma)
Method in brief: as §1

[14] = test system: BxPC-3 (Pancreatic Carcinoma)
Method in brief: as §1

[15] = test system: MONO-MAC-6 (Acute Myeloid Leukemia)
Method in brief: as §1

[16] = test system: ZR-75-30 (Breast Carcinoma)
Method in brief: as §1

SMILES	combination Emax [1]	combination Emax [2]	combination Emax [3]	combination Emax [4]	combination Emax [5]	combination Emax [6]	combination Emax [7]	combination Emax [8]	combination Emax [9]	combination Emax [10]	combination Emax (KALS-1 (Glioblastoma))	combination Emax [11]	combination Emax (GAK (Melanoma))	combination Emax (ES6 (Ewing's Sarcoma))	combination Emax (IST-MEL1 (Melanoma))	combination Emax [12]	combination Emax [13]	combination Emax [14]	combination Emax [15]	combination Emax [16]
O=C(c1cc(Cc2n[nH]c(=O)c3ccccc23)ccc1F)N1CCN(C(=O)C2CC2)CC1 [Olaparib] + CN(CC[C@H](CSC1=CC=CC=C1)NC2=C(C=C(C=C2)S(=O)(=O)NC(=O)C3=CC=C(C=C3)N4CCC(CC4)[C@H](C5=CC=CC=C5C6=CC=C(C=C6)Cl)O)S(=O)(=O)C(F)(F)F)CCO [AZD4320] (first compound max 10 µM, 7x7, partner max 1 µM)	0.961	0.386	0.396	0.155	0.553	0.224	0.636	0.796	0.137	0.236	0.156	0.328	0.146	0.237	0.171	0.122	0.787	0.148	0.431	0.149
O=C(c1cc(Cc2n[nH]c(=O)c3ccccc23)ccc1F)N1CCN(C(=O)C2CC2)CC1 [Olaparib] + COc1nnc2ccc(N3CCC(c4ccc(OCCN5CCN(C)C(=O)[C@H]5C)cc4)CC3)nn12 [AZD5153] (first compound max 10 µM, 7x7, partner max 1 µM)	0.214	0.484	0.751	0.519	0.362	0.343	0.757	0.334	0.385	0.302	0.548	0.352	0.451	0.292	0.252	0.0881	0.38	0.403	0.882	0.207
O=C(c1cc(Cc2n[nH]c(=O)c3ccccc23)ccc1F)N1CCN(C(=O)C2CC2)CC1 [Olaparib] + Cc1c2c(nn1C)CSCc1cc(n(C)n1)CSc1cc(c3ccccc3c1)OCCCc1c(C(=O)O)n(C)c3c-2c(Cl)ccc13 [AZD5991] (first compound max 10 µM, 7x7, partner max 1 µM)	0.227	0.329	0.979	0.352	0.339	0.192	0.501	0.0669	0.128	0.16	0.163	0.0022	0.0885	0.168	0.101	0.111	0.163	0.043	0.993	0.197
N#Cc1cnc(Nc2cc(NC[C@H]3CNCCO3)c(C(F)(F)F)cn2)cn1 [SRA737] + C=CCn1c(=O)c2cnc(Nc3ccc(N4CCN(C)CC4)cc3)nc2n1-c1cccc(C(C)(C)O)n1 [AZD1775] (first compound max 10 µM, partner max 1 µM)	0.685	0.97	0.988	0.876	0.318	0.711	0.926	0.495	0.465	0.648	0.927	0.311	0.841	0.349	0.655	0.853	0.456	0.613	1	0.266
N#Cc1cnc(Nc2cc(NC[C@H]3CNCCO3)c(C(F)(F)F)cn2)cn1 [SRA737] + CCc1c2c(nc3ccc(O)cc13)-c1cc3c(c(=O)n1C2)COC(=O)[C@]3(O)CC [SN-38] (first compound max 10 µM, 7x7, partner max 0.3 µM)	0.645	0.943	0.994	0.763	0.431	0.817	0.799	0.547	0.592	0.648	0.928	0.675	0.585	0.59	0.828	0.815	0.574	0.671	1	0.124
N#Cc1cnc(Nc2cc(NC[C@H]3CNCCO3)c(C(F)(F)F)cn2)cn1 [SRA737] + Nc1ccn([C@@H]2O[C@H](CO)[C@@H](O)C2(F)F)c(=O)n1 [Gemcitabine] (first compound max 10 µM, 7x7, partner max 0.3 µM)	0.617	0.951	1	0.772	0.638	0.844	0.945	0.61	0.575	0.745	0.87	0.373	0.506	0.599	0.709	0.827	0.868	0.644	1	0.312
N#Cc1cnc(Nc2cc(NC[C@H]3CNCCO3)c(C(F)(F)F)cn2)cn1 [SRA737] + O=c1[nH]cc(F)c(=O)[nH]1 [5-Fluorouracil] (first compound max 10 µM, 7x7, partner max 20 µM)	0.435	0.478	0.967	0.575	0.381	0.559	0.584	0.436	0.34	0.477	0.792	0.0378	0.448	0.161	0.528	0.785	0.21	0.555	1	0.169
